Reference: ChEMBL document CHEMBL2346545, “Quinic acid derivatives from Pimpinella brachycarpa exert anti-neuroinflammatory activity in lipopolysaccharide-induced microglia” (Bioorg Med Chem Lett, 2013)
pIC50: −log10 of the molar value. Activity calls are given as the source filed them. The calls are words filed in the database; no cut-off is given here.

Assays:
[1] = Cytotoxicity against mouse BV2 cells assessed as cell viability at 20 uM by MTT assay; assay type: cell-based, BV-2; details: read-out: Activity
BV-2 [2] = assay: Anti-neuroinflammatory activity in mouse BV2 cells assessed as inhibition of LPS-induced nitric oxide production […] by Griess assay relative to control; assay type: functional, cell-based
[3] = molecular target: T1, Nitric oxide synthase, inducible (Mus musculus) (UniProt P29477); assay: Inhibition of iNOS in LPS-treated mouse BV2 cells assessed as decrease in nitrite level at 1 to 10 uM after 12 hrs by Griess assay; assay type: cell-based; details: BV-2
T1 sequence (whole entry): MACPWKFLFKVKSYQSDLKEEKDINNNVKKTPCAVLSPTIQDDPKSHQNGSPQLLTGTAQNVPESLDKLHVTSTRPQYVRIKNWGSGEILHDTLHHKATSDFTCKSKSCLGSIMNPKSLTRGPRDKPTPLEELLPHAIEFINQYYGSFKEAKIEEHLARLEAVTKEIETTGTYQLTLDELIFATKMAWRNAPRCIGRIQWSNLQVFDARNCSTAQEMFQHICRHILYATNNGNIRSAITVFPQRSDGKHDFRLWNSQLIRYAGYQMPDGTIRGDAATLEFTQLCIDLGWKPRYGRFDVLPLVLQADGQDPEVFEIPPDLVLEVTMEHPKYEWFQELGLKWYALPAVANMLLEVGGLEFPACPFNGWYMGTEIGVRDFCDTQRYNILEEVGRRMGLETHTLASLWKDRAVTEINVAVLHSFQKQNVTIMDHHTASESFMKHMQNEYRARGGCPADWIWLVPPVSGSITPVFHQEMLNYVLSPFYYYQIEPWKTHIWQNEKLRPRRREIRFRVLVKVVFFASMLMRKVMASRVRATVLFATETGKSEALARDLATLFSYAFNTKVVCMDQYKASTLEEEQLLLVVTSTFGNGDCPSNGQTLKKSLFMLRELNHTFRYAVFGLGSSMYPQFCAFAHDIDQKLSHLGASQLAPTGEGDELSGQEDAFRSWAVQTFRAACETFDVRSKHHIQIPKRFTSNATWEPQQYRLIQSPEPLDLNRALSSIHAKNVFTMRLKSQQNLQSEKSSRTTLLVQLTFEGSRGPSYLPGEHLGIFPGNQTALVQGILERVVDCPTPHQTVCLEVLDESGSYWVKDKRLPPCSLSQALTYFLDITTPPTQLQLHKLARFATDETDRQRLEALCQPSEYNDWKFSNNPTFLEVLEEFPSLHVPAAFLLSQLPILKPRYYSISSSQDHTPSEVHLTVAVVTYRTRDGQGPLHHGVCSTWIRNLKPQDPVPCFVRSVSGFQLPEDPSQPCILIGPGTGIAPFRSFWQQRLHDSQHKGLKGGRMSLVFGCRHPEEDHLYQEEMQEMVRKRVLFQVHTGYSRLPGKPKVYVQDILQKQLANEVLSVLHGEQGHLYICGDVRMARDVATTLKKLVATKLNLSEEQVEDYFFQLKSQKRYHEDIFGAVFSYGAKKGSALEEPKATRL

[4] = Reduction of SNP-induced nitrite accumulation at 5 to 10 uM after 180 mins by Griess assay
RAW264.7 [5] = assay: Cytotoxicity against mouse RAW264.7 cells assessed as decrease in cell viability at 20 uM; assay type: cell-based; details: raw264.7, 20 µM
RAW264.7 [6] = assay: Anti-neuroinflammatory activity in mouse RAW264.7 cells assessed as inhibition of LPS-induced nitric oxide production; assay type: functional, cell-based
BV-2 [7] = assay: Downregulation of iNOS expression in LPS-treated mouse BV2 cells at 10 uM incubated for 30 mins prior to LPS challenge measured after 6 hrs by Western blot analysis; assay type: functional, cell-based
BV-2 [8] = assay: Downregulation of iNOS expression in LPS-treated mouse BV2 cells at 1 to 10 uM incubated for 30 mins prior to LPS challenge measured after 6 hrs by Western blot analysis; assay type: functional, cell-based
[9] = Reduction of SNP-induced nitrite accumulation at 1 to 10 uM after 180 mins by Griess assay
[10] = molecular target: T1, Nitric oxide synthase, inducible (Mus musculus); assay: Inhibition of iNOS in LPS-treated mouse BV2 cells assessed as decrease in nitrite level at 1 to 5 uM after 12 hrs by Griess assay; assay type: cell-based; details: BV-2

pIC50 (BV-2 [2])	Structure (SMILES)	viability at 20 µM [1] [%]	further results
4.92	COC(=O)[C@]1(O)C[C@@H](O)[C@@H](O)[C@H](OC(=O)/C=C/c2ccc(O)c(O)c2)C1 [CHLOROGENIC ACID METHYL ESTER]	95.3	
4.90	CO[C@@H](CC(=O)O[C@@]1(C(=O)O)C[C@@H](O)[C@@H](O)[C@H](OC(=O)/C=C/c2ccc(O)c(O)c2)C1)c1ccc(O)c(O)c1	90.9	
4.28	O=C(/C=C\c1ccc(O)cc1)O[C@@H]1C[C@](OC(=O)/C=C\c2ccc(O)cc2)(C(=O)O)C[C@@H](O)[C@H]1O	96	
4.06	COC(=O)[C@]1(O)C[C@@H](O)[C@@H](O)[C@H](OC(=O)/C=C\c2ccc(O)cc2)C1	109	
4.22	O=C(/C=C\c1ccc(O)cc1)O[C@@H]1C[C@](OC(=O)/C=C/c2ccc(O)cc2)(C(=O)O)C[C@@H](O)[C@H]1O	98.1	
4.61	COC(=O)[C@]1(O)C[C@@H](O)[C@@H](OC(=O)/C=C/c2ccc(O)c(O)c2)[C@H](OC(=O)/C=C/c2ccc(O)c(O)c2)C1	92.2	
4.63	O=C(/C=C/c1ccc(O)cc1)O[C@@H]1C[C@](OC(=O)/C=C/c2ccc(O)c(O)c2)(C(=O)O)C[C@@H](O)[C@H]1O	94.3	

The next lines start with the compound.

Structure (SMILES)	pIC50 (BV-2 [2])	viability at 20 µM [1] [%]	further results
CNC(=N)NCCC[C@H](N)C(=O)O [TILARGININE]		103	
O=C(/C=C/c1ccc(O)c(O)c1)O[C@@H]1C[C@](OC(=O)/C=C/c2ccc(O)c(O)c2)(C(=O)O)C[C@@H](O)[C@H]1O [1,5-O-TRANS-DICAFFEOYLQUINIC ACID]	4.65	93.7	
CO[C@@H](CC(=O)O[C@@H]1C[C@](OC(=O)/C=C/c2ccc(O)c(O)c2)(C(=O)O)C[C@@H](O)[C@H]1O)c1ccc(O)c(O)c1	5.33	93.2	inhibition [3]: Active; Activity [4]: Active; Activity (RAW264.7 [5]): Non-toxic; pIC50 (RAW264.7 [6]): 3.76; Activity (BV-2 [7]): Active
COC(=O)[C@]1(O)C[C@@H](O)[C@@H](O)[C@H](OC(=O)/C=C\c2ccc(O)c(O)c2)C1	4.77	90.6	
COC(=O)[C@]1(O)C[C@@H](OC(=O)/C=C/c2ccc(O)c(O)c2)[C@@H](O)[C@H](OC(=O)/C=C/c2ccc(O)c(O)c2)C1	5.04	91.1	Activity (RAW264.7 [5]): Non-toxic; Activity (BV-2 [8]): inactive; Activity [9]: Active; inhibition [10]: Active; pIC50 (RAW264.7 [6]): 4.37
COC(=O)[C@@]1(O)C[C@@H](O)[C@H](OC(=O)/C=C/c2ccc(O)c(O)c2)[C@H](OC(=O)/C=C/c2ccc(O)c(O)c2)C1 [3,4-O-TRANS-CAFFEOYLQUINIC ACID METHYL ESTER]	4.70	96.8	
COC(=O)[C@]1(O)C[C@@H](O)[C@@H](OC(=O)/C=C/c2ccc(O)c(O)c2)[C@H](O)C1	4.78	92.6	
COC(=O)[C@]1(O)C[C@@H](O)[C@@H](OC(=O)/C=C/c2ccc(O)cc2)[C@H](O)C1	4.35	108	
COC(=O)[C@]1(O)C[C@@H](O)[C@@H](O)[C@H](OC(=O)/C=C/c2ccc(O)cc2)C1	4.09	109	
